Experimental data from patent US20230181542A1, “METHOD AND PHARMACEUTICAL COMPOSITION FOR TREATING CHRONIC KIDNEY DISEASE” (Chengdu WenDing Technology Development Co., Ltd., priority 2020, published 2023).
Several values for one entry are separate records, joined by “and”; a condition that tells them apart may be missing. Identical values can stand only once.

Experiments:
[1] = test system: rhesus monkeys with spontaneous chronic diabetic kidney disease; experiment: Renal function markers CysC, Cr-P and BUN in blood; assay type: in vivo, Macaca mulatta (Rhesus Macaque); conditions: Valsartan group; for CysC: Mean ± SD (baseline 1.57 ± 0.10)
Experimental: The details of the dosing regime of each group are described below, wherein the route of administration was oral administration. The baseline period was 1 month, followed by continuous oral administration for 58 days. Glomerular filtration rate eGFR: creatinine (Cr-P), blood urea nitrogen (BUN), cystatin (CysC) were detected to calculate the eGFR value. Detections were performed once in the baseline period before administration, and at designated times (such as D14, D28, […], and […], etc.) after administration. In accordance with reference literature (Levey A S, Stevens L A, Schmid C H et al. A new equation to estimate glomerular filtration rate. Ann Intern Med 2009; 150:604-612), the formula for calculating eGFR was as follows: Blood sample collection method: Before the blood collection operation, an animal was fasted overnight without anesthesia. After the animals were acclimatized, the backboard was gently squeezed to restrain the animal, and blood was collected through the forearm vein. After collection, sterilized dry cotton ball was used to gently press the blood collection site to stop bleeding. [table] CysC is an endogenous marker that reflects changes in glomerular filtration rate. Cr-P has been used as the main index of renal function for more than 40 years. In this test, glomerular filtration rate eGFR is calculate by measuring CysC and Cr-P. Although BUN was first used as an evaluation index of renal function, it could not meet the requirements of endogenous GFR markers and was only used as an auxiliary index in this test.

[2] = test system: rhesus monkeys with spontaneous chronic diabetic kidney disease; experiment: Glomerular filtration rate eGFR calculated from Cr-P and CysC; assay type: in vivo, Macaca mulatta (Rhesus Macaque); conditions: for eGFR change value: animals with eGFR 30 to 59, DOX+PMP+MTP groups 1# and 2# combined n = 5, Valsartan n = 3, Mean ± SD; for eGFR: Valsartan group, Mean ± SD (baseline 50 ± 7)
Experimental: (§1) The details of the dosing regime of each group are described below, wherein the route of administration was oral administration. The baseline period was 1 month, followed by continuous oral administration for 58 days.
Glomerular filtration rate eGFR: creatinine (Cr-P), blood urea nitrogen (BUN), cystatin (CysC) were detected to calculate the eGFR value. Detections were performed once in the baseline period before administration, and at designated times (such as D14, D28, D45, and D58, etc.) after administration. In accordance with reference literature (Levey A S, Stevens L A, Schmid C H et al. A new equation to estimate glomerular filtration rate. Ann Intern Med 2009; 150:604-612), the formula for calculating eGFR was as follows: […]
Blood sample collection method: Before the blood collection operation, an animal was fasted overnight without anesthesia. After the animals were acclimatized, the backboard was gently squeezed to restrain the animal, and blood was collected through the forearm vein. After collection, sterilized dry cotton ball was used to gently press the blood collection site to stop bleeding.
Results of eGFR are shown in FIG. 3, Table 4-2 and Table 4-3. eGFR values of 30 to 59 ml/min/1.73m^2 were selected and included to analyze the changes of glomerular filtration rate.

[3] = test system: rhesus monkeys with spontaneous chronic diabetic kidney disease; experiment: Proteinuria (UACR, urinary Malb and Cr-U), 4 to 6 hour urine collection; assay type: in vivo, Macaca mulatta (Rhesus Macaque); conditions: for UACR: Valsartan group 2.67 mg/kg oral, individual animals and Mean ± SD (baseline 61 ± 33); for UACR change rate / UACR decreased by an average of (compared with the baseline) / Malb / Cr-U: Valsartan group; for UACR change rate: individual animals and Mean ± SD, negative = decrease; for Malb: individual animals and Mean ± SD (baseline 76.1 ± 114.7); for Cr-U: individual animals and Mean ± SD (baseline 90.9 ± 108.5)
Experimental: The details of the dosing regime of each group are described below, wherein the route of administration was oral administration. The baseline period was 1 month, followed by continuous oral administration for 58 days. […] Urinary albumin excretion rate (UACR): 4 h to 6 hours urine was collected and detected for urinary microalbumin (Malb) and urinary creatinine (Cr-U), followed by calculation of UACR value. Detection was performed one time before administration, and at designated times (such as once at D30 and once at […]) after administration. UACR=Malb/Cr-U. Urine sample collection method: Animals were fasted overnight before the operation of collecting urine. On the day of operation, animals were transferred to a metabolic cage, followed by collecting all urine excreted within 4 to 6 hours into a urine collection bag. Detection method: see Tables 3-2 and 3-3 Effects on urinary albumin excretion rate (UACR) are shown in FIG. 1, FIG. 2 and Table 4-1. […]

[4] = test system: rhesus monkeys with spontaneous chronic diabetic kidney disease; experiment: Blood pressure (SBP/DBP) after anesthesia; assay type: in vivo, Macaca mulatta (Rhesus Macaque); conditions: Valsartan group
Experimental: as §1
Blood pressure: blood pressure was detected after anesthesia, including systolic blood pressure (SBP), diastolic blood pressure (DBP), mean blood pressure (MBP) and heart rate (HR). Detection was carried out 1 time before administration and 1 time at D58 (end of administration).
Detection method: Animals were anesthetized by intramuscular injection of 15 mg/kg ketamine hydrochloride and then placed in a supine position, followed by being tied with a cuff of appropriate size according to the corresponding standard. A blood oxygen probe was clamped on a finger or toe (except the left hand) of the animal, with the red photosensitive surface on the side of the finger pad. The blood pressure of the animal was continuously detected 3 times in automatic mode with an interval of 1 minute. If the differences in the SBP, DBP and MBP of the three times were less than 15 mmHg, the measurement completed, otherwise the measurement repeated.
Detection indicators: systolic blood pressure (SBP), diastolic blood pressure (DBP), mean blood pressure (MBP) and heart rate (HR).
Instrument: GE B40i electrophysiological monitor.

[5] = marketed drug, known side effects; cited from earlier work

`CCCCC(=O)N(Cc1ccc(-c2ccccc2-c2nnn[nH]2)cc1)[C@H](C(=O)O)C(C)C` [Valsartan] gave a CR-P ([1]; D 14 (baseline 1.46 ± 0.29)) of 1.26 ± 0.24 mg/dL, a BUN ([1]; D 14 (baseline 41.9 ± 34.2)) of 27.1 ± 6.0 mg/dL and a CysC ([1]; D 14) of 1.59 ± 0.10 mg/L. It also gave a CR-P ([1]; D 28 (baseline 1.46 ± 0.29)) of 1.18 ± 0.13 mg/dL, a BUN ([1]; D 28 (baseline 41.9 ± 34.2)) of 35.0 ± 16.6 mg/dL and a CysC ([1]; D 28) of 1.53 ± 0.08 mg/L. It also gave a CR-P ([1]; D 45 (baseline 1.46 ± 0.29)) of 1.18 ± 0.12 mg/dL, a BUN ([1]; D 45 (baseline 41.9 ± 34.2)) of 37.9 ± 19.2 mg/dL and a CysC ([1]; D 45) of 1.56 ± 0.09 mg/L. For the same compound, the CR-P ([1]; D 58 (baseline 1.46 ± 0.29)) was 1.10 ± 0.08 mg/dL, the BUN ([1]; D 58 (baseline 41.9 ± 34.2)) was 31.6 ± 11.3 mg/dL and the CysC ([1]; D 58) was 1.48 ± 0.11 mg/L. It also gave an eGFR change value ([2]; D 14 minus baseline) of 3 ± 2 ml/min/1.73 m^2, an eGFR change value ([2]; D 28 minus baseline) of 6 ± 7 ml/min/1.73 m^2 and an eGFR change value ([2]; D 45 minus baseline) of 5 ± 6 ml/min/1.73 m^2. The eGFR change value ([2]; D 58 minus baseline) was 10±7 ml/min/1.73 m^2, the eGFR ([2]; D 14) was 53 ± 7 ml/min/1.73 m^2 and the eGFR ([2]; D 28) was 56 ± 2 ml/min/1.73 m^2. For the same compound, the eGFR ([2]; D 45) was 55 ± 1 ml/min/1.73 m^2, the eGFR ([2]; D 58) was 60 ± 1 ml/min/1.73 m^2 and the UACR ([3]; D 30) was 59 mg/g and 84 mg/g and 20 mg/g and 21 mg/g and 46 ± 31 mg/g. The UACR ([3]; D 58) was 38 mg/g and 64 mg/g and 19 mg/g and 22 mg/g and 36 ± 20 mg/g, the UACR change rate ([3]; Baseline-D 30) was −27.11% and −14.25% and −33.78% and −42.53% and −29.41 ± 11.92% and the UACR change rate ([3]; Baseline-D 58) was −52.26% and −34.73% (2×) and −41.10% and −40.71 ± 8.27%. The “UACR decreased by an average of (compared with the baseline)” value ([3]; D30) was “about 30%”, the Malb ([3]; D 30) was 51.3 mg/L and 199.8 mg/L and 13.4 mg/L and 5.9 mg/L and 67.6 ± 90.3 mg/L and the Cr-U ([3]; D 30) was 87.5 mg/dL and 238.1 mg/dL and 68.3 mg/dL and 27.5 mg/dL and 105.3 ± 92.0 mg/dL. The Malb ([3]; D 58) was 54.9 mg/L and 206.7 mg/L and 39.9 mg/L and 6.2 mg/L and 76.9 ± 88.9 mg/L, the Cr-U ([3]; D 58) was 143.0 mg/dL and 323.6 mg/dL and 206.3 mg/dL and 28.2 mg/dL and 175.3 ± 123.4 mg/dL and the “UACR decreased by an average of (compared with the baseline)” value ([3]; D58, p<0.01 vs placebo) was 40.71±8.27%. The DBP ([4]; D 58, Mean ± SD (baseline 71 ± 15)) was 63 ± 11 mmHg, the SBP ([4]; D 58, Mean ± SD (baseline 135 ± 16)) was 123 ± 12 mmHg and the “DBP decreased by an average of (compared with the baseline)” value ([4]; D58, p<0.01 vs placebo) was 8±6 mmHg. For the same compound, the “SBP decreased by an average of (compared with the baseline)” value ([4]; D58, p<0.05 vs placebo) was 13±6 mmHg, the DBP change value ([4]; D 58 vs baseline, Mean ± SD) was −8 ± 5 mmHg and the SBP change value ([4]; D 58 vs baseline, Mean ± SD) was −13 ± 6 mmHg.

In the case of `CCCN[C@H]1CCc2nc(N)sc2C1` [PMP, (S)-N6-propyl-4,5,6,7-tetrahydro-1,3-benzothiazole-2,6-diamine], the “daily dose at which the incidence of somnolence increases” value [5] is listed as “above 1.5 mg”.
